Laboratory results: paper PMC8999125, “In Vitro and In Vivo Effects of the Urokinase Plasminogen Activator Inhibitor WX-340 on Anaplastic Thyroid Cancer Cell Lines” (International Journal of Molecular Sciences, 2022)

Target: T1, urokinase-type plasminogen activator (uPA) (Homo sapiens, UniProt P00749)
T1 construct: gene PLAU; uPA purified from human urine
Experiment: colorimetric uPA activity assay (CHEMICON kit), dose-response […] to […]
Type: biochemical

WX-340
IC50: 90 nM
